From PMC11027099 (ACS Chemical Neuroscience, 2024)
Like-named read-outs stand apart in the source and are kept apart here.

Legend:
[1] = biological target: T1, cone CNG channel (CNGA3/CNGB3) (Homo sapiens, UniProt Q16281+Q9NQW8); assay: inside-out patch clamp, Xenopus oocytes, Hill fit; assay type: cell-based
T1 construct: heterotetramer 3 CNGA3 : 1 CNGB3; subunits in pGEMHE, cRNA ratio 1:2.5, expressed in Xenopus laevis oocytes; inside-out patches
T1 sequence (Q16281 1-694): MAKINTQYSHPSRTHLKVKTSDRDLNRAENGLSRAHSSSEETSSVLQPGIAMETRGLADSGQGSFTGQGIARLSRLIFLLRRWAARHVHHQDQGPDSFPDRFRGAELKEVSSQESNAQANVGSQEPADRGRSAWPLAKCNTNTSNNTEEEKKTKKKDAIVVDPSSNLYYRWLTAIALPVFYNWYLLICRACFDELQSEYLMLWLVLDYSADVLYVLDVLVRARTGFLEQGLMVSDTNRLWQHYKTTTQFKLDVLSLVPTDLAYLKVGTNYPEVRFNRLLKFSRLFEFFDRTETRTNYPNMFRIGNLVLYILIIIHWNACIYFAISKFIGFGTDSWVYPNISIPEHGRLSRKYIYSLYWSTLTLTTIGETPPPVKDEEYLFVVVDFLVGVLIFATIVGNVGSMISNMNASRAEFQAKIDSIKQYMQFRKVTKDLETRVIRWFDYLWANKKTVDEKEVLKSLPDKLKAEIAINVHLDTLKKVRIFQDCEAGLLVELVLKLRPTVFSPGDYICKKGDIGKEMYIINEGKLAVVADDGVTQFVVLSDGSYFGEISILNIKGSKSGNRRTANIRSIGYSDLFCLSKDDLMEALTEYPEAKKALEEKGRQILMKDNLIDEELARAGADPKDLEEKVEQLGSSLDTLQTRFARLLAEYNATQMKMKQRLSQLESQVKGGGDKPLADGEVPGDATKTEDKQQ
T1 sequence (Q9NQW8 1-809): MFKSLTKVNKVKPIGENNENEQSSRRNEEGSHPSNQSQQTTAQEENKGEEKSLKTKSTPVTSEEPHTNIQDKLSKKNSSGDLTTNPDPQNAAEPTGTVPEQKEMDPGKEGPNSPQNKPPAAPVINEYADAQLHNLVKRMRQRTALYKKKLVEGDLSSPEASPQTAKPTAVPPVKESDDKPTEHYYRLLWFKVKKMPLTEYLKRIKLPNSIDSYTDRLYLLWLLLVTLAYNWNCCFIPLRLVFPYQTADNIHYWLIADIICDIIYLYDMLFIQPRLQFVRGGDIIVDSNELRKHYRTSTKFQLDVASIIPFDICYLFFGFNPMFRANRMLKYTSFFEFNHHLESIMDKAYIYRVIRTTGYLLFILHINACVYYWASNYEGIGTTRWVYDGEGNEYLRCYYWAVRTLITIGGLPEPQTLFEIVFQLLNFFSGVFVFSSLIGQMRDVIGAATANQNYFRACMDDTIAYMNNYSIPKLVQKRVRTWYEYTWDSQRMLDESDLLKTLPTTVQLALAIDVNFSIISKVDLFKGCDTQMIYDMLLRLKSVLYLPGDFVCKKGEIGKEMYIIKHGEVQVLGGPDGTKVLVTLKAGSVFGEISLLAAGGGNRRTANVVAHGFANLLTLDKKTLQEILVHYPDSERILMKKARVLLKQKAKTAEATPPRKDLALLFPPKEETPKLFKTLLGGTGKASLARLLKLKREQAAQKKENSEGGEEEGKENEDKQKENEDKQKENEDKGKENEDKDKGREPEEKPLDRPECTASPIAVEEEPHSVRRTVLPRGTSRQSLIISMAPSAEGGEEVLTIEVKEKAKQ

[2] = biological target: T2, rod CNG channel (CNGA1/CNGB1a) (Bos taurus, UniProt Q00194+Q28181); assay: inside-out patch clamp, Xenopus oocytes, Hill fit; assay type: cell-based
T2 construct: heterotetramer 3 CNGA1 : 1 CNGB1a; subunits in pGEMHE, cRNA ratio 1:4, expressed in Xenopus laevis oocytes; inside-out patches
T2 sequence (Q00194 whole entry): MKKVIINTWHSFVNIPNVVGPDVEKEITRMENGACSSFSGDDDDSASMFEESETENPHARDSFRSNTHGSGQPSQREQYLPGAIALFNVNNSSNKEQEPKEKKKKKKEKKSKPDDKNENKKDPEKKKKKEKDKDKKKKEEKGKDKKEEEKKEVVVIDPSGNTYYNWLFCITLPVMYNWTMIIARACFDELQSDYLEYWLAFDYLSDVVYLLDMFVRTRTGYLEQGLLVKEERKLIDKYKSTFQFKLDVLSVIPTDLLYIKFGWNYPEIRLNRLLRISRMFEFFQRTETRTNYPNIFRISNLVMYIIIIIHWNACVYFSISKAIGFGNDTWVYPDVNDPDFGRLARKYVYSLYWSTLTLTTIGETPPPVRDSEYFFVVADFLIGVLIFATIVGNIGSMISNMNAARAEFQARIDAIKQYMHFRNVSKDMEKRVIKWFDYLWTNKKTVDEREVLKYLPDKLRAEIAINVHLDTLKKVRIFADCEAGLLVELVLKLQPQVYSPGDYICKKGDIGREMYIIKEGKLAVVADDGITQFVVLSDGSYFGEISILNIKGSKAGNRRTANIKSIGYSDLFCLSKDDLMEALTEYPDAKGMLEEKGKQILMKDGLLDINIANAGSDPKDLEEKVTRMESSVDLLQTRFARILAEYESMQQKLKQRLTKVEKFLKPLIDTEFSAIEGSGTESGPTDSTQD
T2 sequence (Q28181 whole entry): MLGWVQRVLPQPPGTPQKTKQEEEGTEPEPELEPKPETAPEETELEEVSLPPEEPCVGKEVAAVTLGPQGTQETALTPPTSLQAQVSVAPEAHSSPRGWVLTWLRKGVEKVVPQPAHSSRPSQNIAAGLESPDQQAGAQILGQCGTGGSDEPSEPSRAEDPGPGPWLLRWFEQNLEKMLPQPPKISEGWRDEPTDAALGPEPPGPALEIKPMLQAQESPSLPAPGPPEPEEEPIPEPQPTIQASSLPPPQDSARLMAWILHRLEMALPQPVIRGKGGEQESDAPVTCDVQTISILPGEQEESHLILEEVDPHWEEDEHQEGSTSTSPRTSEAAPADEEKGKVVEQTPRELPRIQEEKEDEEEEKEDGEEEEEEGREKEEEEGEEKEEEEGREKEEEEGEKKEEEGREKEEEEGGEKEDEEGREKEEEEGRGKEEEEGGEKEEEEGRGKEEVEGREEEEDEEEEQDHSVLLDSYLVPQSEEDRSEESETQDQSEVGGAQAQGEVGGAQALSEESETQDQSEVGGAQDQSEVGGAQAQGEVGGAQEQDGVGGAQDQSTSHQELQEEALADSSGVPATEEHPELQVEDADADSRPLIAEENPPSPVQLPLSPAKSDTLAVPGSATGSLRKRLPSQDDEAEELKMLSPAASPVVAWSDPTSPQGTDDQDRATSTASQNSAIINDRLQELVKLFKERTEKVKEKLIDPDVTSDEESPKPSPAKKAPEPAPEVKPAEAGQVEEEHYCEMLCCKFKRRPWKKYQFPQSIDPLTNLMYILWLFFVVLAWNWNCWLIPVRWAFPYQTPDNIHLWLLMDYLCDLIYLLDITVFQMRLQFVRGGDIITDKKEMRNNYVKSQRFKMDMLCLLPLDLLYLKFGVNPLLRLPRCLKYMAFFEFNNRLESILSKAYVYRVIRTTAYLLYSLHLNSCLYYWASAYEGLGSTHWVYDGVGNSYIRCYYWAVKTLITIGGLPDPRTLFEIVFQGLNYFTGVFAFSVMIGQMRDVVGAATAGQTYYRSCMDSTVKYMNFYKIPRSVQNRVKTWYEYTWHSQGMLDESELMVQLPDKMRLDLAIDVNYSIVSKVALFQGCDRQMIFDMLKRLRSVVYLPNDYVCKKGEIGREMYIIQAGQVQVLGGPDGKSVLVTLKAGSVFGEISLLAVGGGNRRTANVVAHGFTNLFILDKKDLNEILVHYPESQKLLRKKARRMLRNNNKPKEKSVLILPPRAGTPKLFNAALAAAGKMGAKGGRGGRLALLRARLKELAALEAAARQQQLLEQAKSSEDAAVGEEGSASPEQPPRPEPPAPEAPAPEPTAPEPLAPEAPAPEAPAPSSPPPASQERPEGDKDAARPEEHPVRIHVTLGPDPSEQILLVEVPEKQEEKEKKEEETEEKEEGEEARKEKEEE

[3] = biological target: T2, rod CNG channel (CNGA1/CNGB1a); assay: inside-out patch clamp, Xenopus oocytes, current relative to saturating cGMP; assay type: biochemical; details: partial agonist; up to 5 mM analogue vs 3 mM cGMP, pH 7.4, room temperature
[4] = biological target: T1, cone CNG channel (CNGA3/CNGB3); assay: as above; assay type: biochemical; details: partial agonist; saturating analogue vs 1 mM cGMP, pH 7.4, room temperature

| SMILES | EC50 [1] | EC50 [2] | % activation relative to cGMP [3] | EC50 ([1]; channel activation (agonist), +100 mV, pH 7.4, room temperature) | % activation relative to cGMP [4] |
| --- | --- | --- | --- | --- | --- |
| Nc1nc2c(ncn2[C@@H]2O[C@@H]3COP(O)(=S)O[C@H]3[C@H]2O)c(=O)[nH]1 (stereo partly shown) [compound 4, Rp-cGMPS] | – | – | ~ 11% | – | ~ 43.6% |
| Nc1nc2c(nc(Br)n2[C@@H]2O[C@@H]3COP(=O)(O)O[C@H]3[C@H]2O)c(=O)[nH]1 [compound 1, 8-Br-cGMP] | – | 6.18 µM | – | 1040 nM | – |
| Nc1nc2c(ncn2[C@@H]2O[C@@H]3COP(=O)(O)O[C@H]3[C@H]2O)c(=O)[nH]1 [cGMP] | 18700 nM | – | – | – | – |
| O=c1c2ncn([C@@H]3O[C@@H]4COP(=O)(O)O[C@H]4[C@H]3O)c2nc2[nH]c(-c3ccccc3)cn12 [compound 3, PET-cGMP] | – | – | ~ 41.2% | – | PET-cGMP, Rp-cGMPS, Sp-cGMPS, and Sp-8-pCPT-cGMPS, was only partially effective when activating cone CNG channels |

Continued, in another order:

| EC50 [1] | EC50 [2] | % activation relative to cGMP [3] | EC50 ([1]; channel activation (agonist), +100 mV, pH 7.4, room temperature) | SMILES | % activation relative to cGMP [4] |
| --- | --- | --- | --- | --- | --- |
| 90 nM | 0.77 µM | – | – | Nc1nc(=O)c2nc(Sc3ccc(Cl)cc3)n([C@@H]3O[C@@H]4COP(=O)(O)O[C@H]4[C@H]3O)c2[nH]1 [compound 2, 8-pCPT-cGMP] | – |
| 131000 nM | 42.8 µM | – | – | Nc1nc2c(nc(Sc3ccc(Cl)cc3)n2[C@@H]2O[C@@H]3CO[P@](O)(=S)O[C@H]3[C@H]2O)c(=O)[nH]1 [compound 7, Sp-8-pCPT-cGMPS] | – |
| 2880 nM | – | ~ 62.8% | – | Nc1nc2c(ncn2[C@@H]2O[C@@H]3CO[P@](O)(=S)O[C@H]3[C@H]2O)c(=O)[nH]1 [compound 5, Sp-cGMPS] | – |
